Broadly, the Ki is the dissociation constant of the complex between target and ligand, obtained from inhibition or displacement.

The test addresses T1, recombinant human NK3 receptor (Homo sapiens, UniProt P29371).
T1 construct: expressed in transfected cells; host or cells: HEK293 cells, transient expression; membranes
T1 sequence (P29371 1-465): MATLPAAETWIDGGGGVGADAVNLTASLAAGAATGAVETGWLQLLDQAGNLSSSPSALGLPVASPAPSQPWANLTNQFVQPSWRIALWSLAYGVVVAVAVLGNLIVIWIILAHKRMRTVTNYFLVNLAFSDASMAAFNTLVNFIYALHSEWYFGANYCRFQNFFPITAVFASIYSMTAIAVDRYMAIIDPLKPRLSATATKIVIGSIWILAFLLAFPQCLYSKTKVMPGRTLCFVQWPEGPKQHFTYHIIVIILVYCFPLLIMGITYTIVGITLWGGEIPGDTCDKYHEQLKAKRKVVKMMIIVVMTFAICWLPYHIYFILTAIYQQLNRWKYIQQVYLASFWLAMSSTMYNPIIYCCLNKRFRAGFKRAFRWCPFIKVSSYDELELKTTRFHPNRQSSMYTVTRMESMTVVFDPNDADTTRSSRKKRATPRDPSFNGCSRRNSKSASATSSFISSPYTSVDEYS
Briefly: [3H]SR142801 competition binding assay.
As for `CN(C(=O)OCCC(C)(C)C)[C@H]1CN(C(=O)C2CCN(C(=O)C3(C)CC3)CC2)C[C@@H]1c1ccc(Cl)c(Cl)c1` (racemic) [Example 30, rac-{(3R,4S)-4-(3,4-Dichloro-phenyl)-1-[1-(1-methyl-cyclopropanecarbonyl)-piperidine-4-carbonyl]-pyrrolidin-3-yl}-methyl-carbamic acid 3,3-dimethyl-butyl ester], the inhibitory constant (Ki) was found to be 10.3 nM. On to `CC(=O)c1ccc(N2CCC(C(=O)N3C[C@@H](N(C)C(=O)Oc4ccc(F)cc4)[C@H](c4ccc(Cl)cc4)C3)CC2)nc1` [Example 182, [(3S,4R)-1-(5′-Acetyl-3,4,5,6-tetrahydro-2H-[1,2′]bipyridinyl-4-carbonyl)-4-(4-chloro-phenyl)-pyrrolidin-3-yl]-methyl-carbamic acid 4-fluoro-phenyl ester], for which the Ki came out at 2 nM. With `CN(C(=O)Oc1ccc(F)cc1)[C@@H]1CN(C(=O)C2CCN(C3CC3)CC2)C[C@H]1c1ccc(Cl)cc1` [Example 150, [(3S,4R)-4-(4-Chloro-phenyl)-1-(1-cyclopropyl-piperidine-4-carbonyl)-pyrrolidin-3-yl]-methyl-carbamic acid 4-fluoro-phenyl ester] the figure was 15.6 nM; with `CN(C(=O)Oc1ccc(F)cc1)[C@@H]1CN(C(=O)C2CCN(C(=O)CC#N)CC2)C[C@H]1c1ccc(Cl)c(Cl)c1` [Example 271, [(3S,4R)-1-[1-(2-Cyano-acetyl)-piperidine-4-carbonyl]-4-(3,4-dichloro-phenyl)-pyrrolidin-3-yl]-methyl-carbamic acid 4-fluoro-phenyl ester], 0.1 nM. On to `CN(C(=O)Oc1ccc(Cl)cc1)[C@@H]1CN(C(=O)C2CCN(c3ccc(C#N)cn3)CC2)C[C@H]1c1ccc(Cl)cc1` [Example 203, [(3S,4R)-4-(4-Chloro-phenyl)-1-(5′-cyano-3,4,5,6-tetrahydro-2H-[1,2′]bipyridinyl-4-carbonyl)-pyrrolidin-3-yl]-methyl-carbamic acid 4-chloro-phenyl ester], for which the Ki was found to be 0.3 nM.

As for `CN(C(=O)Oc1ccc(F)cc1)[C@@H]1CN(C(=O)C2CCN(C(=O)C3CC3)C2)C[C@H]1c1ccc(Cl)cc1` (stereo partly drawn) [Example 171, [(3S,4R)-4-(4-Chloro-phenyl)-1-(1-cyclopropanecarbonyl-pyrrolidine-3-carbonyl)-pyrrolidin-3-yl]-methyl-carbamic acid 4-fluoro-phenyl ester], the Ki is 9.5 nM.

Turning to `CN(C(=O)O[C@H]1C[C@H]2CC[C@@H]1C2)[C@H]1CN(C(=O)C2CCN(C(=O)C3(C)CC3)CC2)C[C@@H]1c1ccc(Cl)c(Cl)c1` (mixture of isomers) [Example 68, {(3R,4S)-4-(3,4-Dichloro-phenyl)-1-[1-(1-methyl-cyclopropanecarbonyl)-piperidine-4-carbonyl]-pyrrolidin-3-yl}-methyl-carbamic acid (1R,2S,4S)-bicyclo[2.2.1]hept-2-yl ester and {(3S,4R)-4-(3,4-Dichloro-phenyl)-1-[1-(1-methyl-cyclopropanecarbonyl)-piperidine-4-carbonyl]-pyrrolidin-3-yl}-methyl-carbamic acid (1R,2S,4S)-bicyclo[2.2.1]hept-2-yl ester], the Ki came to 62.6 nM.

For the compound `CN(C(=O)Oc1ccc(F)cc1)[C@@H]1CN(C(=O)C2CCN(C(=O)C3CC(F)(F)C3)CC2)C[C@H]1c1ccc(Cl)c(Cl)c1` [Example 268, {(3S,4R)-4-(3,4-Dichloro-phenyl)-1-[1-(3,3-difluoro-cyclobutanecarbonyl)-piperidine-4-carbonyl]-pyrrolidin-3-yl}-methyl-carbamic acid 4-fluoro-phenyl ester], the Ki came to 0.6 nM. With `CN(C(=O)Oc1ccc(F)cc1)[C@@H]1CN(C(=O)CCN2CCOCC2)C[C@H]1c1ccc(Cl)cc1` [Example 114, [(3S,4R)-4-(4-Chloro-phenyl)-1-(3-morpholin-4-yl-propionyl)-pyrrolidin-3-yl]-methyl-carbamic acid 4-fluoro-phenyl ester] the figure was 83 nM.

Source of the values: patent US9226916B2, “Pyrrolidine derivatives” (HOFFMANN-LA ROCHE INC., priority 2009, dated 2016).
